The results in this text go back to patent publication US5183818A, “Arylalkylether and arylalkylthioether inhibitors of lipoxygenase enzyme activity” (Abbott Laboratories, priority 1991, dated 1993).

A word on the IC50: it is the concentration that inhibits the measured activity by half.

For assay [1], the target named is T1, 5-Lipoxygenase from RBL-1 20,000 × g Supernatant (Rattus norvegicus, UniProt P12527).
T1 construct: 20,000 xg supernatant from 1.5 million homogenized RBL-1 cells; endogenous in cells; host or cells: RBL-1 cells, 20,000 xg supernatant of homogenate
T1 sequence (P12527 1-673): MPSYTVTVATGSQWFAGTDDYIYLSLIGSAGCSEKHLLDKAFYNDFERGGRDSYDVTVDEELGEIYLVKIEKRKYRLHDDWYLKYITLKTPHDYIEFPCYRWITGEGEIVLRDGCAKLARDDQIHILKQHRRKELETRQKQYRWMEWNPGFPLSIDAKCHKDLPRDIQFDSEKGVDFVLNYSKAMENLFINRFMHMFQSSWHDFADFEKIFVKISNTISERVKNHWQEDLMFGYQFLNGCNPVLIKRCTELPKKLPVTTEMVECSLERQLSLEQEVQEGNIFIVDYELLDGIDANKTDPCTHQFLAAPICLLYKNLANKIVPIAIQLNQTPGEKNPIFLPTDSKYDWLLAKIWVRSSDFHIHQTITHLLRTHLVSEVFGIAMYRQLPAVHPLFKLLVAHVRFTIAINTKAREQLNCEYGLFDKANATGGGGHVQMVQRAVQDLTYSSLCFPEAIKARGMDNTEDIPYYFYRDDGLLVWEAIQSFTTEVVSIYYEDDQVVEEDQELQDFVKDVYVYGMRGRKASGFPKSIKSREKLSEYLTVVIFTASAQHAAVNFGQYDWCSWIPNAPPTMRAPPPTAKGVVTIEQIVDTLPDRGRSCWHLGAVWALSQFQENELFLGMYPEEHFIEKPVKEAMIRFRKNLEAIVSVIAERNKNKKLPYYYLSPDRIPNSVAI
The assay can be described thus: 5-lipoxygenase inhibition in 20,000 xg supernatant of homogenized RBL-1 cells (radiolabeled arachidonic acid). The class given is biochemical. The settings on record: in vitro, incubations in triplicate, read-out: IC50 × 10^6 Molar. The protocol:
Assays to determine 5-lipoxygenase inhibitory activity were performed in […] incubations containing the 20,000 xg supernatant from 1.5 million homogenized RBL-1 cells and various concentrations of the test compound. Reactions were initiated by addition of radiolabeled arachidonic acid and terminated by acidification and ether extraction. Reaction products were separated from nonconverted substrate by thin layer chromatography and measured by liquid scintillation spectroscopy. All incubations are performed in triplicate. Inhibition of 5-lipoxygenase activity was calculated as the ratio of the amount of product formed in the presence and absence of inhibitor. IC50 values (concentration of compound producing 50% enzyme inhibition) were calculated by linear regression analysis of percentage inhibition versus log inhibitor concentration plots. (Dyer, R. D.; Haviv, F.; Hanel, A. M.; Bornemier, D. A.; Carter, G. W. Fed. Proc., Fed. Am. Soc. Exp. Biol. 1984, 43, 1462A).

The test system of another assay is Leukotriene Biosynthesis. The assay can be described thus: Inhibition of leukotriene biosynthesis in vivo, rat peritoneal anaphylaxis model. The settings on record: 200 μmol/kg oral (gavage) one hour prior to antigen challenge, peritoneal fluids 15 minutes after challenge. As for the experimental part:
Inhibition of the biosynthesis of leukotrienes in vivo after oral administration of compound was determined using a rat peritoneal anaphylaxis model in a similar manner as that described by Young and coworkers (Young, P. R.; Dyer, R. D.; Carter, G. W. Carter, G. W. Fed. Proc., Fed. Am. Soc. Exp. Biol. 1985, 44, 1185). In this model rats were injected intraperitoneally (ip) with rabbit antibody to bovine serum albumin (BSA) and three hours later injected ip with BSA to induce an antigen antibody response. Rats were sacrificed 15 minutes after this challenge and the peritoneal fluids were collected and analyzed for leukotriene levels. Test compounds were administered by gavage one hour prior to the antigen challenge. Percent inhibition values were determined by comparing the treatment group to the mean of the control group, and the results are presented in Table 2 for representative compounds of the present invention.

The structures appear in SMILES notation.

Consider `Cc1cc(COCCN(O)C(N)=O)c(C)o1` [Example 9, N-Hydroxy-N-[2-(1-(2,5-dimethylfur-3yl)methoxy)ethyl] urea], for which, in assay [1], the IC50 worked out at 6.9 µM.

As for `CC(COCc1cccs1)N(O)C(N)=O` (stereo not shown) [Example 20], the half-maximal inhibitory concentration (IC50) in assay [1] was found to be 4.5 µM.

For the compound `Cc1cc(COCC(C)N(O)C(N)=O)c(C)o1` (stereo not shown) [Example 8], in assay [1], the IC50 was determined as 5.7 µM.

With `CC(COCc1ccco1)N(O)C(N)=O` (stereo not shown) [Example 3], in assay [1], the IC50 turned out to be 12 µM. In the assay with Leukotriene Biosynthesis, the “Percent Inhibition of Leukotrienes at 200 μmol/kg (Oral Dose)” value (from here on “Percent Inhibition of Leukotrienes”) is recorded as 77%.

`Cc1occc1COCC(C)N(O)C(N)=O` (stereo not shown) [Example 10]: in assay [1], the 50% inhibitory concentration (IC50) was determined as 6 µM. In addition, the “Percent Inhibition of Leukotrienes” value in the assay with Leukotriene Biosynthesis came out at 75%.

As for `Cc1ccc(COCCN(O)C(N)=O)s1` [Example 14, N-Hydroxy-N-[2-(1-(5-methylthien-2-yl)methoxy)ethyl] urea], the concentration for half-maximal inhibition (IC50) in assay [1] stood at 3 µM. Also, the “Percent Inhibition of Leukotrienes” value with Leukotriene Biosynthesis turned out to be 92%.

Regarding `Cc1ccc(COCC(C)N(O)C(N)=O)s1` (stereo not shown) [Example 13], in assay [1], the half-maximal inhibitory concentration (IC50) worked out at 1.9 µM.

For the compound `CC(COCc1ccsc1)N(O)C(N)=O` (stereo not shown) [Example 21], the half-inhibitory concentration (IC50) in assay [1] came out at 8.4 µM.

Regarding `NC(=O)N(O)CCOCc1cccs1` [Example 19, N-Hydroxy-N-[2-(thien-2-ylmethoxy)ethyl] urea], the half-inhibitory concentration (IC50) in assay [1] came to 4.1 µM. Also, the “Percent Inhibition of Leukotrienes” value in the assay with Leukotriene Biosynthesis is on record as 100%.

With `CC(OCC(C)N(O)C(N)=O)c1ccco1` (stereo not shown) [Example 12, N-Hydroxy-N-[2-(1-[1-(fur-2-yl)ethoxy)]propyl] urea], in assay [1], the 50% inhibitory concentration (IC50) came out at 7.3 µM.

`CC(CSCc1ccco1)N(O)C(N)=O` (stereo not shown) [Example 1]: in assay [1], the IC50 amounted to 5.5 µM. Besides, the “Percent Inhibition of Leukotrienes” value in the assay with Leukotriene Biosynthesis worked out at 71%.

`NC(=O)N(O)CCOCc1cc2ccccc2s1` [Example 16, N-Hydroxy-N-[2-(1-(benzo[b]thien-2-yl)methoxy)ethyl] urea]: in assay [1], the concentration for half-maximal inhibition (IC50) was found to be 0.67 µM.

With `CC(CSc1ccccn1)N(O)C(N)=O` (stereo not shown) [Example 2, N-hydroxy-N-[2-(1-(2-pyridyl)thio)propyl] urea], the IC50 in assay [1] is 9.7 µM.

As for `Cc1ccc(C(C)OCC(C)N(O)C(N)=O)o1` (stereo not shown) [Example 7, N-Hydroxy-N-[2-(1-[1-(5-methylfur-2-yl)]ethoxy)propyl] urea], in assay [1], the half-inhibitory concentration (IC50) is 6.6 µM.

As for `CNC(=O)N(O)C(C)CSCc1ccc(CN(C)C)o1` (stereo not shown) [Example 18, N-Hydroxy-N-[2-(1-(5-N,N-dimethylaminomethyl)fur-2-ylmethylthio)-propyl]-N'-methyl urea], in assay [1], the half-maximal inhibitory concentration (IC50) was 27.6 µM.

As to `CC(COCc1ccoc1)N(O)C(N)=O` (stereo not shown) [Example 11], in assay [1], the concentration for half-maximal inhibition (IC50) is 9.3 µM. Moreover, the “Percent Inhibition of Leukotrienes” value with Leukotriene Biosynthesis is 78%.

In the case of `Cc1ccc(C(C)OCCN(O)C(N)=O)o1` (stereo not shown) [Example 4, N-Hydroxy-N-[2-(1-[1-(5-methylfur-2-yl)]ethoxy)ethyl] urea], in assay [1], the IC50 was found to be 6.3 µM.

In the case of `CC(COCc1cc2ccccc2s1)N(O)C(N)=O` (stereo not shown) [Example 17], the IC50 in assay [1] was 0.46 µM. Besides, the “Percent Inhibition of Leukotrienes” value in the assay with Leukotriene Biosynthesis is recorded as 89%.

With `Cc1ccc(COCCN(O)C(N)=O)o1` [Example 6, N-Hydroxy-N-[2-(5-methylfur-2-ylmethoxy)ethyl] urea], the IC50 in assay [1] was found to be 7.3 µM.

Consider `CC(OCCN(O)C(N)=O)c1cc2ccccc2s1` (stereo not shown) [Example 15, N-Hydroxy-N-[2-(1-[1-(benzo[b]thien-2-yl)]ethoxy)ethyl) urea], for which the IC50 in assay [1] was 0.2 µM.

Take `Cc1ccc(COCC(C)N(O)C(N)=O)o1` (stereo not shown) [Example 5]: in assay [1], the IC50 came to 4.6 µM.
